Results from ChEMBL document CHEMBL1158420, “Synthesis, spectral, crystal and antimicrobial studies of biologically potent oxime ethers of nitrogen, oxygen and sulfur heterocycles” (2009).
Values after ≈ are worked out from the molar mass of the structure shown.

Key:
Pseudomonas aeruginosa = test: Antibacterial activity against Pseudomonas aeruginosa by twofold dilution method; assay type: functional
Candida = test: Antifungal activity against Candida 51 by twofold dilution method; assay type: functional
Aspergillus flavus = test: Antifungal activity against Aspergillus flavus by twofold dilution method; assay type: functional
Escherichia coli = test: Antibacterial activity against Escherichia coli by twofold dilution method; assay type: functional
Aspergillus niger = test: Antifungal activity against Aspergillus niger by twofold dilution method; assay type: functional
Candida albicans = test: Antifungal activity against Candida albicans by twofold dilution method; assay type: functional
Rhizopus = test: Antifungal activity against Rhizopus sp. by twofold dilution method; assay type: functional
Cryptococcus neoformans = test: Antifungal activity against Cryptococcus neoformans by twofold dilution method; assay type: functional
Staphylococcus aureus = test: Antibacterial activity against Staphylococcus aureus by twofold dilution method; assay type: functional
[1] = test system: Salmonella enterica subsp. enterica; test: Antibacterial activity against Salmonella typhi by twofold dilution method; assay type: functional, Salmonella enterica subsp. enterica serovar Typhi; details: Salmonella enterica; read-out: MIC
[2] = Pseudomonas aeruginosa, read-out: MIC
[3] = Aspergillus flavus, read-out: MIC
[4] = Escherichia coli, read-out: MIC
[5] = Aspergillus niger, read-out: MIC
[6] = Candida albicans, read-out: MIC
[7] = Cryptococcus neoformans, read-out: MIC
[8] = Staphylococcus aureus, read-out: MIC

Structure (SMILES): CC(C)C1/C(=N/OCc2ccccc2)CC(c2ccccc2)NC1c1ccccc1 (configuration not stated)
- MIC (Pseudomonas aeruginosa; [2]): 200 µg/mL (≈ 502 µM)
- MIC (Candida; Candida, 51, read-out: MIC): 200 µg/mL (≈ 502 µM)
- MIC (Aspergillus flavus; [3]): 200 µg/mL (≈ 502 µM)
- MIC (Escherichia coli; [4]): 100 µg/mL (≈ 251 µM)
- MIC (Aspergillus niger; [5]): 200 µg/mL (≈ 502 µM)
- MIC (Candida albicans; [6]): 50 µg/mL (≈ 125 µM)
- MIC (Rhizopus; Rhizopus, read-out: MIC): 50 µg/mL (≈ 125 µM)
- MIC (Cryptococcus neoformans; [7]): 100 µg/mL (≈ 251 µM)
- MIC (Staphylococcus aureus; [8]): > 200 µg/mL
- MIC [1]: 100 µg/mL (≈ 251 µM)

Structure (SMILES): COc1ccc([C@@H]2CC(=NOCc3ccccc3)C[C@@H](c3ccc(OC)cc3)S2)cc1
- MIC (Pseudomonas aeruginosa; [2]): 25 µg/mL (≈ 57.7 µM)
- MIC (Candida; Candida, 51, read-out: MIC): 25 µg/mL (≈ 57.7 µM)
- MIC (Aspergillus flavus; [3]): 25 µg/mL (≈ 57.7 µM)
- MIC (Escherichia coli; [4]): 50 µg/mL (≈ 115 µM)
- MIC (Aspergillus niger; [5]): 25 µg/mL (≈ 57.7 µM)
- MIC (Candida albicans; [6]): 25 µg/mL (≈ 57.7 µM)
- MIC (Rhizopus; Rhizopus, read-out: MIC): 50 µg/mL (≈ 115 µM)
- MIC (Cryptococcus neoformans; [7]): 12.5 µg/mL (≈ 28.8 µM)
- MIC (Staphylococcus aureus; [8]): 50 µg/mL (≈ 115 µM)
- MIC [1]: 50 µg/mL (≈ 115 µM)

Structure (SMILES): COc1ccc(C2CC(=NOCc3ccccc3)CC(c3ccc(OC)cc3)N2)cc1 (configuration not stated)
- MIC (Pseudomonas aeruginosa; [2]): 50 µg/mL (≈ 120 µM)
- MIC (Candida; Candida, 51, read-out: MIC): 50 µg/mL (≈ 120 µM)
- MIC (Aspergillus flavus; [3]): 100 µg/mL (≈ 240 µM)
- MIC (Escherichia coli; [4]): 100 µg/mL (≈ 240 µM)
- MIC (Aspergillus niger; [5]): 100 µg/mL (≈ 240 µM)
- MIC (Candida albicans; [6]): 100 µg/mL (≈ 240 µM)
- MIC (Rhizopus; Rhizopus, read-out: MIC): 50 µg/mL (≈ 120 µM)
- MIC (Cryptococcus neoformans; [7]): 100 µg/mL (≈ 240 µM)
- MIC (Staphylococcus aureus; [8]): 50 µg/mL (≈ 120 µM)
- MIC [1]: 50 µg/mL (≈ 120 µM)

Structure (SMILES): CC1/C(=N\OCc2ccccc2)CC(c2ccccc2)OC1c1ccccc1 (configuration not stated)
- MIC (Pseudomonas aeruginosa; [2]): 100 µg/mL (≈ 269 µM)
- MIC (Candida; Candida, 51, read-out: MIC): 100 µg/mL (≈ 269 µM)
- MIC (Aspergillus flavus; [3]): 200 µg/mL (≈ 538 µM)
- MIC (Escherichia coli; [4]): 100 µg/mL (≈ 269 µM)
- MIC (Aspergillus niger; [5]): 200 µg/mL (≈ 538 µM)
- MIC (Candida albicans; [6]): 100 µg/mL (≈ 269 µM)
- MIC (Rhizopus; Rhizopus, read-out: MIC): 200 µg/mL (≈ 538 µM)
- MIC (Cryptococcus neoformans; [7]): 100 µg/mL (≈ 269 µM)
- MIC (Staphylococcus aureus; [8]): 100 µg/mL (≈ 269 µM)
- MIC [1]: 200 µg/mL (≈ 538 µM)

Structure (SMILES): Cc1ccc(C2CC(=NOCc3ccccc3)CC(c3ccc(C)cc3)N2)cc1 (configuration not stated)
- MIC (Pseudomonas aeruginosa; [2]): 50 µg/mL (≈ 130 µM)
- MIC (Candida; Candida, 51, read-out: MIC): 100 µg/mL (≈ 260 µM)
- MIC (Aspergillus flavus; [3]): 100 µg/mL (≈ 260 µM)
- MIC (Escherichia coli; [4]): 200 µg/mL (≈ 520 µM)
- MIC (Aspergillus niger; [5]): 200 µg/mL (≈ 520 µM)
- MIC (Candida albicans; [6]): 200 µg/mL (≈ 520 µM)
- MIC (Rhizopus; Rhizopus, read-out: MIC): 100 µg/mL (≈ 260 µM)
- MIC (Cryptococcus neoformans; [7]): 200 µg/mL (≈ 520 µM)
- MIC (Staphylococcus aureus; [8]): 200 µg/mL (≈ 520 µM)
- MIC [1]: 100 µg/mL (≈ 260 µM)

Structure (SMILES): c1ccc(CO/N=C2\C[C@@H](c3ccccc3)S[C@@H](c3ccccc3)C2)cc1 (relative stereo)
- MIC (Pseudomonas aeruginosa; [2]): 200 µg/mL (≈ 535 µM)
- MIC (Candida; Candida, 51, read-out: MIC): 200 µg/mL (≈ 535 µM)
- MIC (Aspergillus flavus; [3]): > 200 µg/mL
- MIC (Escherichia coli; [4]): 200 µg/mL (≈ 535 µM)
- MIC (Aspergillus niger; [5]): 100 µg/mL (≈ 268 µM)
- MIC (Candida albicans; [6]): > 200 µg/mL
- MIC (Rhizopus; Rhizopus, read-out: MIC): 200 µg/mL (≈ 535 µM)
- MIC (Cryptococcus neoformans; [7]): > 200 µg/mL
- MIC (Staphylococcus aureus; [8]): > 200 µg/mL
- MIC [1]: 100 µg/mL (≈ 268 µM)

Structure (SMILES): Cc1ccc([C@@H]2CC(=NOCc3ccccc3)C[C@@H](c3ccc(C)cc3)S2)cc1 (relative stereo)
- MIC (Pseudomonas aeruginosa; [2]): 100 µg/mL (≈ 249 µM)
- MIC (Candida; Candida, 51, read-out: MIC): 200 µg/mL (≈ 498 µM)
- MIC (Aspergillus flavus; [3]): 100 µg/mL (≈ 249 µM)
- MIC (Escherichia coli; [4]): 50 µg/mL (≈ 125 µM)
- MIC (Aspergillus niger; [5]): 100 µg/mL (≈ 249 µM)
- MIC (Candida albicans; [6]): 50 µg/mL (≈ 125 µM)
- MIC (Rhizopus; Rhizopus, read-out: MIC): 50 µg/mL (≈ 125 µM)
- MIC (Cryptococcus neoformans; [7]): 50 µg/mL (≈ 125 µM)
- MIC (Staphylococcus aureus; [8]): 100 µg/mL (≈ 249 µM)
- MIC [1]: 100 µg/mL (≈ 249 µM)

Structure (SMILES): c1ccc(CON=C2C[C@@H](c3ccccc3)S[C@H](c3ccccc3)C2)cc1 (relative stereo)
- MIC (Pseudomonas aeruginosa; [2]): > 200 µg/mL
- MIC (Candida; Candida, 51, read-out: MIC): > 200 µg/mL
- MIC (Aspergillus flavus; [3]): 100 µg/mL (≈ 268 µM)
- MIC (Escherichia coli; [4]): 200 µg/mL (≈ 535 µM)
- MIC (Aspergillus niger; [5]): 200 µg/mL (≈ 535 µM)
- MIC (Candida albicans; [6]): 200 µg/mL (≈ 535 µM)
- MIC (Rhizopus; Rhizopus, read-out: MIC): > 200 µg/mL
- MIC (Cryptococcus neoformans; [7]): 200 µg/mL (≈ 535 µM)
- MIC (Staphylococcus aureus; [8]): > 200 µg/mL
- MIC [1]: 200 µg/mL (≈ 535 µM)

Structure (SMILES): Cc1ccc(C2OC(c3ccc(C)cc3)C(C)C(=NOCc3ccccc3)C2C)cc1 (stereo in doubt; 7d2)
- MIC (Pseudomonas aeruginosa): 25 µg/mL (≈ 60.5 µM)
- MIC (Candida): 6.25 µg/mL (≈ 15.1 µM)
- MIC (Aspergillus flavus): 25 µg/mL (≈ 60.5 µM)
- MIC (Escherichia coli): 50 µg/mL (≈ 121 µM)
- MIC (Aspergillus niger): 50 µg/mL (≈ 121 µM)
- MIC (Candida albicans): 6.25 µg/mL (≈ 15.1 µM)
- MIC (Rhizopus): 25 µg/mL (≈ 60.5 µM)
- MIC (Cryptococcus neoformans): 25 µg/mL (≈ 60.5 µM)
- MIC (Staphylococcus aureus): 25 µg/mL (≈ 60.5 µM)

Structure (SMILES): C[C@@H]1[C@H](O)[C@@H](C)/C=C/C=C/C=C/C=C/C=C/C=C/C=C/[C@H](O[C@@H]2O[C@H](C)[C@@H](O)[C@H](N)[C@@H]2O)C[C@@H]2O[C@](O)(C[C@@H](O)C[C@@H](O)[C@H](O)CC[C@@H](O)C[C@@H](O)CC(=O)O[C@H]1C)C[C@H](O)[C@H]2C(=O)O [AMPHOTERICIN B]
- MIC (Candida; Candida, 51, read-out: MIC): 25 µg/mL (≈ 27.1 µM)
- MIC (Aspergillus flavus; [3]): 50 µg/mL (≈ 54.1 µM)
- MIC (Aspergillus niger; [5]): 50 µg/mL (≈ 54.1 µM)
- MIC (Candida albicans; [6]): 25 µg/mL (≈ 27.1 µM)
- MIC (Rhizopus; Rhizopus, read-out: MIC): 25 µg/mL (≈ 27.1 µM)
- MIC (Cryptococcus neoformans; [7]): 25 µg/mL (≈ 27.1 µM)

Structure (SMILES): O=C(O)c1cn(C2CC2)c2cc(N3CCNCC3)c(F)cc2c1=O [CIPROFLOXACIN]
- MIC (Escherichia coli; [4]): 25 µg/mL (≈ 75.4 µM)
- MIC [1]: 50 µg/mL (≈ 151 µM)
